The subject of assay [1] is human leukemic cell line U937. Description: Mitochondrial transmembrane potential (DiOC6(3), flow cytometry). Type of assay: cell-based. Particulars: 16 hours. The text has this: Mitochondrial pathway is one of the pathways of apoptosis induction. In cells undergoing apoptosis, mitochondria were stimulated to regulate the Bcl-2 family of proteins, which made the inner and outer mitochondrial membrane unstable. Apoptigenic factors were further released to induce apoptosis. The apoptotic mechanism of dehydrosulphurenic acid in tumor cells was studied in this experiment by measuring the mitochondrial transmembrane potential.
Dehydrosulphurenic acid in the concentration of 5 μg/ml were used to treat human leukemic cell line U937 for 16 hours; while U937 cells treated with 4 μM anti-cancer drug Camptothecin for 16 hours were served as positive control, and cells without treatment were served as negative control. These cells were washed with PBS and incubated with 40 nM 3,3′-dihexyloxacarbocyanine (DiOC6(3), Molecular Probes, Eugene, Oreg.) in the dark at 37° C. for 15 min, and were detected by flowcytometry. Excitation and emission wavelength settings of 488 nm and 530 nm were used to detect the density of green fluorescence to further estimate mitochondrial membrane potential.

Assay [2] deals with apoptosis- and mitotic catastrophe-related proteins in U937 cells. As to the kind of experiment: Western blot analysis of apoptosis-related proteins. Format: cell-based, human. Particulars: 5 μg/ml; 0.5-16 hours. The text has this: Death receptor pathway is a signal transduction pathway of apoptosis induction. Some of the death factors, such as TNF-α and so on, bind with death receptor (DR) such as TNF family in the membrane to send death signal to cells and induce a series of apoptotic events. A family of aspartic acid-specific proteases, known as caspases, includes caspase-3 and caspase-8 would be activated during apoptotic process. Activated caspase can cleave downstream protein such as Poly(ADP-ribose) polymerase (PARP) to proceed through apoptosis. This experiment investigated the implication of the death receptor pathway in dehydrosulphurenic acid-induced apoptosis through Western blot analysis.
Dehydrosulphurenic acid in the concentration of 5 μg/ml were used to treat human leukemic cell line U937 for 0.5, 1, 2, 4, and 16 hours; while U937 cells treated with 4 μM anti-cancer drug Camptothecin for 16 hours were served as positive control, and cells without treatment were served as negative control. All the proteins from the cells were extracted with bicinchoninic acid (BCA) assay kit (Pierce, Rockford, Ill.). Equal amounts ([…]) of the protein were aliquoted and separated by electrophoresis on a 10% SDS-PAGE gel at a constant current of 20 mA and 70-100 volts. The proteins on the gel were transferred onto PVDF membranes, blocked with 5% non-fat milk, and incubated respectively with human-specific antibodies including: anti-Bcl-2, anti-Bax, anti-caspase 3, anti-caspase 8, anti-Cyclin B1, anti-p-Chk2 and anti-Actin (all were purchased from Transduction Laboratories, Lexington, Ky., USA) for 3 hours at room temperature. Secondary antibody horseradish peroxidase (purchased from Transduction Laboratories, Lexington, Ky., USA) was then added and the signals were detected under an Enhanced chemiluminescence system (ECS, Amersham Pharmacia, Piscataway, N.J.).
In general terms: A western blot detects proteins with antibodies after separation by electrophoresis.

Assay [3] relates to human leukemic cell line U937. As to the kind of experiment: Cell morphology analysis (Liu's staining). Format: cell-based. To be noted: treatment for 24-72 h. On the procedure: (§1) The human leukemic cell line U937 and the human pancreatic cancer cell line BxPc-3 were treated respectively with dehydrosulphurenic acid for 24-72 h and stained with Liu's staining solution. The morphological changes of cells with (the experimental group) or without dehydrosulphurenic acid treatment (the control group) were observed under inverted phase-contrast microscope and shown in FIG. 5 and FIG. 6.

Assay [4] relates to human pancreatic cancer cell line BxPc-3. As to the kind of experiment: Cell morphology analysis (Liu's staining). Format: cell-based. Particulars: 10 μg/ml. On the procedure: as §1
For assay [5], the system named is human monoblastoid leukemic cell line U937. Description: In vitro survival assay (MTT) for anti-leukemia effects. Format: cell-based. On the procedure:
The NCI anti-cancer drug screen model was adopted to test the anti-cancer effect of dehydrosulphurenic acid. Dehydrosulphurenic acid was added into the culture media of human monoblastoid leukemic cell line U937 to test for tumor cell survival. This survival assay was carried out with the widely known MTT assay. American Type Culture Collection (ATCC) purchased U937 cell line is from lymphoma cells, which belongs to one of human leukemic cell lines and was classified into monoblasts during hematopoietic differentiation.
MTT assay is commonly used to determine cell proliferation, percent of viable cells, and cytotoxicity. MTT (3-[4,5-dimethylthiazol-2-yl]2,5-diphenyltetrazolium bromide) is a yellow dye, which can be absorbed by the living cells and be reduced to purplish blue formazan crystals by succinate tetrazolium reductase in mitochondria. Formazan formation can therefore be used to assess and determine the survival rate of cells.
(§2) The human leukemic cell line U937 was cultivated in RPMI media containing fetal calf serum for 24 hours and maintained in exponential growth condition. The proliferated cells were treated with dehydrosulphurenic acid in the concentration of 0 (the control group), 1.25, 2.5, 5, and 10 μg/ml (the experimental group), respectively. The cells were incubated at 37° C. in a 5% CO2 incubator for 24-72 hours. MTT was added in a concentration of 500 μg/ml into each well in dark and incubated for 4 hours, followed by the addition of 500 μl of isopropanol to stop the reaction. The plates were read on an ELISA reader at wavelength of 570 nm to determine the survival rates. The results were reported as the average±(plus/minus) SEM (Standard Error in the Mean). For statistical analysis, the t-test were used to compare the difference between each experiment result. P<0.05 was considered statistically significant.

In assay [6] the test system is human pancreatic cancer cell line BxPc-3. Description: In vitro survival assay (MTT) for anti-pancreatic cancer effects. Format: cell-based. On the procedure: The NCI anti-cancer drug screen model was also adopted to test the anti-cancer effect. Dehydrosulphurenic acid was added into the culture media of human pancreatic cancer cell line BxPc-3 to test for tumor cell survival. This survival assay was carried out with the abovementioned MTT assay. American Type Culture Collection (ATCC) purchased BxPc-3 cell line is from pancreatic cancer cells, which was originated from the epithelium of human pancreatic adenocarcinomas.
as §2, with “pancreatic cancer” for “leukemic”, “BxPc-3” for “U937”, “DMEM” for “RPMI”, “containing 100 IU/ml penicillin (Invitrogen, Carlsbad, Calif.), 100 IU/ml Streptomycin (Invitrogen, Carlsbad, Calif.), 2 mM glutamin (Invitrogen, Carlsbad, Calif.), 100 IU/ml penicillin (Invitrogen, Carlsbad, Calif.) and 10%” for “containing”, “(Atlanta Biologicals, Norcross, Ga.).” for “for 24 hours and maintained in exponential growth condition.”, “5” for “1.25, 2.5, 5,”

In assay [7] the test system is human leukemic cell line U937. Description: Nuclear DNA changes, DNA ladder by DNA electrophoresis. To be noted: 5 μg/ml; 24, 48, and 72 hours. Format: cell-based. On the procedure: (§3) Besides the abovementioned morphological changes, biochemical changes of the dying cell during apoptosis include chromatin condensation, cell shrinkage and breaking into apoptotic bodies, internucleosomal DNA fragmentation into a multiple DNA ladder during the late stage of apoptosis (can be shown in DNA electrophoresis) and so on. To further define the effects of dehydrosulphurenic acid on U937 and BxPc-3 during apoptotic stages, DNA ladders were determined using DNA electrophoresis at the present experiment.
(§4) Dehydrosulphurenic acid in the concentration of 5 μg/ml were used to treat human leukemic cell line U937 and human pancreatic cancer cell line BxPc-3 for 24, 48, and 72 hours; while U937 cells treated with 4 μM anti-cancer drug Camptothecin for 24 hours were served as positive control. Then these cells were lyzed with 0.5 ml of lysis buffer (5 mM Tris-borate (TBE), pH8.0; 0.25 ml Nonidet P-40; 1 mM EDTA; 20 μg/ml RNase (Sigma, St. Louis, Mo.)) at 37° C. for 1 hour, followed by treating with 300 μg/ml proteinase K for 1 hour. Total DNAs were extracted and analyzed by 1.5% agarose gel electrophoresis in TBE buffer (5 mM TBE buffer containing 1 μM EDTA, pH 8.0).

The test system of assay [8] is human pancreatic cancer cell line BxPc-3. The description is as above. Type of assay: cell-based. Particulars: 5 μg/ml; 24, 48, and 72 hours; data not shown. On the procedure:
as §3, §4

In assay [9] the test system is human leukemic cell line U937. As to the kind of experiment: Cell cycle analysis by flow cytometer (propidium iodide). Format: cell-based. On the procedure:
(§5) Flow cytometer was used to analyze the cell proliferation effect of dehydrosulphurenic acid toward human leukemic cell line U937 and human pancreatic cancer cell line BxPc-3.
(§6) Dehydrosulphurenic acid in the concentration of 1.25, 2.5, 5, and 10 μg/ml were used to treat human leukemic cell line U937 and the concentration of 5 and 10 μg/ml were used to treat human pancreatic cancer cell line BxPc-3; cells without addition of dehydrosulphurenic acid were served as the control group. The treated cells were fixed at […] with 70% ethanol for 1 hour and stained for 30 min with propidium iodide solution (propidium iodide, 0.5 mg/ml; RNAse, 0.1 mg/ml) contained in a CycleTEST PLUS DNA reagent kit (Becton Dickinson, Lincoln Park, N.J.). DNA content measurement on the collected 10^4 cells was performed on the FACS Calibur flow cytometer (Becton Dickinson, Calif., USA), and the cell cycle changes were analyzed using a ModFit software (Becton Dickinson).
On the technique in general: In flow cytometry, cells or beads pass a laser one at a time.

Assay [10] has as its system human pancreatic cancer cell line BxPc-3. Described as above. Format: cell-based. To be noted: 5 and 10 μg/ml; 2 to 3 days. On the procedure: as §5, §6
[11] abbreviates: concentration groups of 5 and 10 μg/ml, third day of experiment.

Structures are written as SMILES. In brackets after ≈: the same amount, converted by molar mass.

We go through 2 compounds from US7994158B2, “Method for inhibiting tumor growth with dehydrosulphurenic acid extracted from Antrodia cinnamomea” (priority 2008, dated 2011).

For the compound `CC[C@@]1(O)C(=O)OCc2c1cc1n(c2=O)Cc2cc3ccccc3nc2-1` [Camptothecin, reference compound], the “decrease of mitochondrial transmembrane potential” value in assay [1] (4 μM camptothecin (positive control)) is given as 37.1%.
The term IC50 denotes the concentration needed to halve the response being measured. As to `C=C(CC[C@@H](C(=O)O)C1C[C@H](O)[C@@]2(C)C3=CCC4C(C)(C)[C@@H](O)CC[C@]4(C)C3=CC[C@]12C)C(C)C` (stereo partly drawn) [dehydrosulphurenic acid, 24-methylenelanosta-7,9(11)-diene-3β,15α-diol-21-oic acid], the “decrease of mitochondrial transmembrane potential” value in [1] (5 μg/ml) was “no significant decrease”. Besides, the Bax expression result in assay [2] is recorded as “not changed”. Also, in [2], the Bcl-2 expression entry is listed as “slightly increased”. The “cleavage of PARP” value in assay [2] is listed as “no cleavage”. Also, in [2], the “cyclin B1 expression” value is on record as “up-regulated”. Besides, the “expression of caspase-3” value in assay [2] is given as “not altered”. Besides, the “expression of caspase-8” value in [2] was “not altered”. Further, the “phosphorylation of Chk2” value in assay [2] is on record as “augmented”. For the same compound, the morphological change entry in [3] is “induced to undergo apoptosis and mitotic catastrophe”; in [4] (after 2 days of treatment), “typical cell apoptosis was observed”; in assay [4] (treatment for one day) it was “balloon-shaped cells were presented”. Also, the inhibitory rate result is given as “more than 60%” in [5] (1.25, 2.5, 5, and 10 μg/ml (all groups), third day of experiment); “more than 95%” in assay [5] (setting [11]); “more than 60%” in assay [6] (setting [11]). Moreover, the “growth inhibition of U937 cells” value in [5] (1.25, 2.5, 5, and 10 μg/ml, first day of experiment) is on record as “inhibit the growth of U937 cells effectively”. For the same compound, the IC50 in [5] (Homo sapiens, U-937, MTT, data not shown, read-out: IC50 toward U937 cells) is approximately 2 µg/mL (≈ 4.13 µM); in assay [6] (Homo sapiens, BXPC-3, MTT, data not shown, read-out: IC50 toward BxPc-3 cells) it was approximately 5 µM. In addition, the highest inhibitory rate in assay [5] (third day of experiment) stood at 98.9%; in assay [6] (third day of experiment), 82.5%. The “growth inhibition of BxPc-3 cells” value in assay [6] (5 and 10 μg/ml, 24-72 hours) is “significantly inhibit the growth of BxPc-3 cells”. Also, the values for the DNA ladder result in assay [7] and in assay [8] were “obvious DNA ladders” and “no DNA ladder”, respectively. The cell cycle arrest result in assay [9] (1.25-10 μg/ml, first day of experiment) is “remarkable G2/M phase arrest”; in assay [10], “remarkable G0/G1 phase arrest”. Further, the sub-G1 population entry in assay [9] (higher concentration or second/third day of experiment) was “accumulating at sub-G1 population”; in assay [10], “increase of cell cycle arrest at sub-G1 population”. Besides, in assay [9] (with increasing concentration), the “percentage of cells with polyploidy” value is recorded as “accompanied by increasing concentration”. In addition, the “percentage of polyploidy cells” value in assay [10] was “not changed”.
